# Assay results as given in patent publication US20200338084A1, “INHIBITORS OF LOW MOLECULAR WEIGHT PROTEIN TYROSINE PHOSPHATASE (LMPTP) AND USES THEREOF” (Sanford Burnham Prebys Medical Discovery Institute, priority 2018, published 2020).
# Target: T1, human LMPTP-A (Homo sapiens, UniProt P24666)
# T1 sequence (P24666 1-158): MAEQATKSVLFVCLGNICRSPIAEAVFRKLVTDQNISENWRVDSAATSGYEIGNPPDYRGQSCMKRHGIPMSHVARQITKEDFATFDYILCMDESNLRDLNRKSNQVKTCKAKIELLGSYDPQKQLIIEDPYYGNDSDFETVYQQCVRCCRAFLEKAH
# Experiment: Enzyme Assay of Inhibition of LMPTP-A
# Format: biochemical
# Conditions: phosphatase assay, OMFP or pNPP substrate, 50 mM Bis-Tris pH 6.0, 37° C.
# Outline: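 Recombinant human LMPTP-A in 50 mM Bis-Tris pH 6.0, 1 mM DTT, 0.01% Triton X-100 at 37° C. Substrate OMFP read continuously by fluorescence (485/525 nm), or pNPP stopped with NaOH and read at 405 nm. IC50 taken from inhibitor concentration versus % activity plots.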
row,Structure (SMILES),IC50
1,"CCCc1nc2c(N)ncn(Cc3c(Cl)cccc3Cl)c-2n1 [3-[(2,6-Dichlorophenyl)methyl]-8-propyl-3-hydropurine-6-ylamine]",≤ 1 µM
2,Clc1ccccc1Cn1cnc(NCc2ccco2)c2ncnc1-2 [[3-(2-Chloro-benzyl)-3H-purin-6-yl]-furan-2-ylmethyl-amine],≥ 20 µM
3,"Cc1ccc(-c2nc3c(N)ncn(Cc4c(Cl)cccc4Cl)c-3n2)s1 [3-[(2,6-Dichlorophenyl)methyl]-8-(5-methyl(2-thienyl))-3-hydropurine-6-ylamine]",≤ 1 µM
4,"Nc1ncn(Cc2c(Cl)cccc2Cl)c2nc(C(c3ccccc3)c3ccccc3)nc1-2 [3-[(2,6-Dichlorophenyl)methyl]-8-(diphenylmethyl)-3-hydropurine-6-ylamine]",≤ 1 µM
5,"Nc1ncn(Cc2ccc(Cl)cc2Cl)c2ncnc1-2 [3-(2,4-Dichloro-benzyl)-3H-purin-6-ylamine]",1 to 20 µM
6,N#Cc1ccccc1Cn1cnc(NCc2ccco2)c2ncnc1-2 [2-((6-((Furan-2-ylmethyl)amino)-3H-purin-3-yl)methyl)benzonitrile],≥ 20 µM
7,"COC(=O)c1ccc(Nc2ncn(Cc3c(Cl)cccc3Cl)c3ncnc2-3)cc1 [Methyl 4-({3-[(2,6-dichlorophenyl)methyl]-3-hydropurin-6-yl}amino)benzoate]",1 to 20 µM
8,"Nc1ncn(Cc2c(Cl)cccc2Cl)c2nc(-c3ccoc3)nc1-2 [3-[(2,6-Dichlorophenyl)methyl]-8-(3-furyl)-3-hydropurine-6-ylamine]",≤ 1 µM
9,"Clc1cccc(Cl)c1Cn1cnc(Nc2cccc(OCc3ccccc3)c2)c2ncnc1-2 [N-(3-(benzyloxy)phenyl)-3-(2,6-dichlorobenzyl)-3H-purin-6-amine]",1 to 20 µM
10,"CC(C)(C)c1ccccc1Nc1ncn(Cc2c(Cl)cccc2Cl)c2ncnc1-2 [{3-[(2,6-Dichlorophenyl)methyl](3-hydropurin-6-yl)}[2-(tert-butyl)phenyl]amine]",≥ 20 µM
11,"Nc1ncn(Cc2c(Cl)cccc2Cl)c2nc(-c3ccc(F)cc3)nc1-2 [3-[(2,6-Dichlorophenyl)methyl]-8-(4-fluorophenyl)-3-hydropurine-6-ylamine]",≤ 1 µM
12,"Cn1cc(-c2nc3c(N)ncn(Cc4c(Cl)cccc4Cl)c-3n2)cn1 [3-[(2,6-Dichlorophenyl)methyl]-8-(1-methylpyrazol-4-yl)-3-hydropurine-6-ylamine]",≤ 1 µM
13,"O=C(Nc1ncn(Cc2c(Cl)cccc2Cl)c2ncnc1-2)c1ccncc1 [N-[3-(2,6-Dichloro-benzyl)-3H-purin-6-yl]-isonicotinamide]",≤ 1 µM
14,"OCCNc1ncn(Cc2c(Cl)cccc2Cl)c2ncnc1-2 [2-[3-(2,6-Dichloro-benzyl)-3H-purin-6-ylamino]-ethanol]",1 to 20 µM
15,"Nc1ncn(Cc2c(Cl)cccc2Cl)c2nc(-c3ccc4scnc4c3)nc1-2 [8-Benzothiazol-5-yl-3-[(2,6-dichlorophenyl)methyl]-3-hydropurine-6-ylamine]",≤ 1 µM

# Continued, values first:
row,IC50,Structure (SMILES)
1,1 to 20 µM,Nc1ncn(Cc2cccc(F)c2)c2ncnc1-2 [3-(3-Fluoro-benzyl)-3H-purin-6-ylamine]
2,≤ 1 µM,"Nc1ncn(Cc2c(Cl)cccc2Cl)c2nc(-c3cccs3)nc1-2 [3-[(2,6-Dichlorophenyl)methyl]-8-(2-thienyl)-3-hydropurine-6-ylamine]"
3,≤ 1 µM,"CCCCCCc1nc2c(N)ncn(Cc3c(Cl)cccc3Cl)c-2n1 [3-[(2,6-Dichlorophenyl)methyl]-8-hexyl-3-hydropurine-6-ylamine]"
4,≤ 1 µM,"Nc1ncn(Cc2c(Cl)cccc2Cl)c2nc(-c3cccc(Cl)c3)nc1-2 [3-[(2,6-Dichlorophenyl)methyl]-8-(3-chlorophenyl)-3-hydropurine-6-ylamine]"
5,≤ 1 µM,"Nc1ncn(Cc2c(Br)cncc2Br)c2ncnc1-2 [3-[(3,5-dibromo-4-pyridyl)methyl]-3-hydropurine-6-ylamine]"
6,≤ 1 µM,"Nc1ncn(Cc2c(Cl)cccc2Cl)c2nc(-c3cnccc3Cl)nc1-2 [3-[(2,6-Dichlorophenyl)methyl]-8-(4-chloro(3-pyridyl))-3-hydropurine-6-ylamine]"
7,≤ 1 µM,Nc1ncn(Cc2c(Cl)cccc2Br)c2ncnc1-2 [3-(2-bromo-6-chlorobenzyl)-3H-purin-6-amine]
8,1 to 20 µM,Nc1ncn(Cc2ccc(C(F)(F)F)cc2)c2ncnc1-2 [3-(4-(trifluoromethyl)benzyl)-3H-purin-6-amine]
9,≥ 20 µM,Clc1ccc(Cn2cnc(NCc3ccco3)c3ncnc2-3)cc1 [[3-(4-Chloro-benzyl)-3H-purin-6-yl]-furan-2-ylmethyl-amine]
10,1 to 20 µM,"O=C(O)c1ccc(Nc2ncn(Cc3c(Cl)cccc3Cl)c3ncnc2-3)cc1 [4-({3-[(2,6-Dichlorophenyl)methyl]-3-hydropurin-6-yl}amino)benzoic acid]"
11,1 to 20 µM,N#Cc1cccc(Cn2cnc(N)c3ncnc2-3)c1 [3-((6-amino-3H-purin-3-yl)methyl)benzonitrile]
12,≥ 20 µM,"CS(=O)(=O)Nc1ncn(Cc2c(Cl)cccc2Cl)c2ncnc1-2 [N-(3-(2,6-dichlorobenzyl)-3h-purin-6-yl)methanesulfonamide]"
13,≥ 20 µM,Nc1ncn(Cc2ccc(F)cc2)c2ncnc1-2 [3-(4-fluorobenzyl)-3H-purin-6-amine]
14,≥ 20 µM,"Clc1cccc(Cl)c1Cn1cnc(N2CCCC2)c2ncnc1-2 [3-(2,6-Dichloro-benzyl)-6-pyrrolidin-1-yl-3H-purine]"
15,1 to 20 µM,"Cc1cccc(C)c1Cn1cnc(NCc2ccco2)c2ncnc1-2 [3-(2,6-Dimethylbenzyl)-n-(furan-2-ylmethyl)-3h-purin-6-amine]"
16,1 to 20 µM,"Cc1cccc(C)c1Cn1cnc(N)c2ncnc1-2 [3-(2,6-dimethylbenzyl)-3H-purin-6-amine]"
17,≤ 1 µM,"COc1ccc(-c2nc3c(N)ncn(Cc4c(Cl)cccc4Cl)c-3n2)cc1 [3-[(2,6-Dichlorophenyl)methyl]-8-(4-methoxyphenyl)-3-hydropurine-6-ylamine]"
